Measured values from patent US20230240994A1, “MEDICAMENT-CONTAINING HOLLOW PARTICLE” (Sumitomo Pharma Co., Ltd., priority 2012, published 2023).
Structures can show the parent of a compound that is named as a salt.

Assay: Particle size distribution by laser diffraction particle size analyzer (volume basis)
Type: physicochemical
Conditions: medicament used (raw material), laser diffraction SALD-3000J
Procedure: In the present invention, the “average particle size” means cumulative 50% particle size D50 in the volume based measurement of powder particles. Such average particle size is measured by a laser diffraction particle size analyzer (e.g., Particle Viewer manufactured by POWREX CORPORATION, or SALD-3000J manufactured by Shimadzu Corporation, or HELOS&RODOS manufactured by Sympatec GmbH) by volume basis.
The particle size distribution of medicament, polymer, other additive, a mixed powder of the medicament and other additive, and the obtained medicament-containing particle was measured by a laser diffraction particle size analyzer (manufactured by POWREX CORPORATION, Particle Viewer) or laser diffraction particle size analyzer (manufactured by Shimadzu Corporation, SAID-3000J) by volume basis.

Row | particle size distribution D10 [μm] | particle size distribution D50 [μm] | particle size distribution D90 [μm] | Structure (SMILES)
1 | 0.7 | 2.7 | 5.6 | NS(=O)(=O)Cc1noc2ccccc12 [Compound A (D50: 2.7 μm)]
2 | 1.0 | 6.9 | 26.8 | NS(=O)(=O)Cc1noc2ccccc12 [Compound A (D50: 6.9 μm)]
3 | 1.2 | 9.9 | 42.9 | NS(=O)(=O)Cc1noc2ccccc12 [Compound A (D50: 9.9 μm)]
4 | 0.7 | 2.7 | 5.6 | NS(=O)(=O)Cc1noc2ccccc12 [Compound A, 1,2-benzisoxazole-3-methanesulfonamide, reference compound]

Same assay, conditions: micronized product of Compound A used in Comparative Example 3-2

Row | particle size distribution D10 [μm] | particle size distribution D50 [μm] | particle size distribution D90 [μm] | Structure (SMILES)
5 | 3.2 | 13.3 | 40.8 | NS(=O)(=O)Cc1noc2ccccc12 [Compound A, 1,2-benzisoxazole-3-methanesulfonamide, reference compound]

Same assay, conditions: starting material as used (medicament, polymer, other additive, mixed powder); volume basis

Row | particle size distribution D10 [μm] | particle size distribution D50 [μm] | particle size distribution D90 [μm] | Structure (SMILES)
6 | 0.7 | 2.7 | 5.6 | NS(=O)(=O)Cc1noc2ccccc12 [Compound A, 1,2-benzisoxazole-3-methanesulfonamide, reference compound]
7 | 0.5 | 1.5 | 3.3 | Cl.O=C1[C@@H]2[C@H]3CC[C@H](C3)[C@@H]2C(=O)N1C[C@@H]1CCCC[C@H]1CN1CCN(c2nsc3ccccc23)CC1 [Compound B, (3aR,4S,7R,7aS)-2-{(1R,2R)-2-[4-(1,2-benzisothiazol-3-yl)piperazin-1-ylmethyl]cyclohexylmethyl}hexahydro-4,7-methano-2H-isoindole-1,3-dione hydrochloride, reference compound]
8 | 1.3 | 4.6 | 12.7 | Nc1ccc(O)c(C(=O)O)c1 [Compound D, 5-amino-2-hydroxybenzoic acid, reference compound]
9 | 1.3 | 3.2 | 6.3 | C[C@@H](c1ccc(-c2ccccc2)c(F)c1)c1cc(N=C(N)N2CCOCC2)on1 [Compound E, 3-[(1S)-1-(2-fluorobiphenyl-4-yl)ethyl]-5-{[amino(morpholin-4-yl)methylene]amino}isoxazole]
10 | 0.6 | 2.5 | 5.0 | COc1cccc(-c2nccc3[nH]c(=O)c(-c4noc(C)n4)cc23)c1 [Compound F, 5-(3-methoxyphenyl)-3-(5-methyl-1,2,4-oxadiazol-3-yl)-2-oxo-1,2-dihydro-1,6-naphthyridine]
11 | 0.8 | 3.1 | 8.1 | COc1ccc2c(c1)c(CC(=O)O)c(C)n2C(=O)c1ccc(Cl)cc1 [Compound G, 1-(4-chlorobenzoyl)-5-methoxy-2-methyl-1-H-indole-3-acetic acid, reference compound]
12 | 0.5 | 2.0 | 4.2 | OC[C@@H](O)[C@@H](O)[C@H](O)[C@H](O)CO [D-mannitol (JM pulverized product), D-mannitol]
13 | 6.9 | 47.0 | 125.2 | OC[C@@H](O)[C@@H](O)[C@H](O)[C@H](O)CO [D-mannitol (PEARLITOL 50C), D-mannitol]
14 | 2.8 | 11.6 | 46.1 | CC(=O)Nc1ccc(O)cc1 [acetaminophen, reference compound]
15 | 4.0 | 48.7 | 129.0 | OC[C@H]1O[C@@H](O[C@H]2[C@H](O)[C@@H](O)C(O)O[C@@H]2CO)[C@H](O)[C@@H](O)[C@H]1O (stereo partly drawn) [lactose (Pharmatose 200M), lactose]
16 | 2.3 | 9.2 | 30.6 | CCOc1cc(N)c(Cl)cc1C(=O)NCC1CN(Cc2ccc(F)cc2)CCO1 (stereo not drawn) [mosapride citrate, reference compound]

Row | Structure (SMILES) | particle size distribution D10 [μm] | particle size distribution D50 [μm] | particle size distribution D90 [μm]
17 | O=C([O-])[O-].[Mg+2] [magnesium carbonate (light), magnesium carbonate] | 0.9 | 4.0 | 10.6
